Reference: patent US7825294B2 (priority 2006, dated 2010)

B1: SEQ ID NO:11: Q174 protein isolated from Hypocrea lixii (Accession No. CAA64974) (protein, listed as Hypocrea lixii)
chain: MLLKQVLVAALLSLSSVTAFPNPNNLHDVEARDVEDNLVARGGSHDCGSYASWNNGKNCCVCKDNGKNYDSKSKSCNCPSGYTWNGHQCVHDCGKDATWQYGNCVCNKKGEVYNPKDKTCSCPPGQYWNGKNCQVDCGKDASYDYKQKKCVCKKHGEIYNSNSKTCSCPPGQVWNGYACVVDCGKEAHFDNKQKKCVCNNYGEIYNSGSKTCACPGGQYFNGKKCVCPYGKVWNGKQCVEDCGKEAHFDYNQKKCVCKNNGEVYNSAKKTCSCPDGQYWNGKQCVCPYGQVFNGKQCVPDCGKEATFDYNQKKCVCKNKGEIYDSKTKTCSCPDGQVWNGKQCVCPYGQVFNGKQCVPDCGKDATYDYNQKKCVCKNKGEVFDQKTKTCSCPDGQYWNGKQCACPYGQIFNGKQCVPDCGKDATYDYNQKKCVCKNKGEVFDQKTKTCSCPDGQYWNGKQCVCPYGKIFDGKQCVEDCGKDAHFDNNQKKCVCNKNGEIYDSKSKTCSCPDSQYWDGSKCACPYGTVWDGKHCNQDCGKDAHFDSNQKKCVCNKQGEVYDSKSKTCSCPDGQYWDGSKCACPYGKVWDGKQCVPNCGKDASYDSKQNKCVCKNIGQVFDTKSLTCSCPAGTSWNGHACVQDCGKDAHYDSNQKCCVCNNKGESYDSKSKTCSCPGNQYWDGNKCACPYGSTWDSSKKTCKMNYP

Legend:
Assay type in all cases: cell-based
[1] = test system: Fusarium graminearum (FGR); conditions: standard plate assay, 4,000 spores/mL, ¼× potato dextrose broth, 28° C., 24 to 48 hours
Diplodia maydis (DMA) = conditions: standard plate assay, 6,000 spores/mL, ¼× potato dextrose broth, 28° C., 24 to 48 hours
[2] = test system: Colectotricum graminicola (CGR); conditions: standard plate assay, 4,000 spores/mL, ¼× Czapec-Dox V8, 28° C., 24 to 48 hours
[3] = test system: Fusarium verticillioides (FVE)

| Molecule | antifungal activity against FGR [1] | antifungal activity against DMA (Diplodia maydis (DMA)) | antifungal activity against CGR [2] | antifungal activity against FVE [3] |
| --- | --- | --- | --- | --- |
| Domain B (SPKKDEHEHCGKHASFNEEKKECVCHDKSEVFEKHHKKCKKAKDEKKKDDKKH; Domain B of SEQ ID NO34) | showed antifungal activity to varying extents |  |  |  |
| Domain C (KKDKHHDHCGKHASYSEEKKECVCHNKAEVFERKHKKCKKHISLR; Domain C of SEQ ID NO34) | showed antifungal activity to varying extents |  |  |  |
| Domain D (SIFNHCGRHAYYDEAKKECICHDAGKDFLKKHKTCACPQGEKWHHIERKCKA; Domain D of SEQ ID NO34) | showed antifungal activity to varying extents |  |  |  |
| SEQ ID NO:1: antipathogenic polypeptide (52 amino acids) isolated from a fungal fermentation broth extract of Fusarium oxysporum, designated LB-12265 (SILHHCGKHASWDHAKSECVCHDSGKVYTKKHHKCKCPKGEKWHHIEKKCKK; PEPTIDE (1)...(52) Predicted mature LB-12265 peptide; listed as Fusarium oxysporum) | showed antifungal activity | showed antifungal activity | showed antifungal activity | showed antifungal activity |
| SEQ ID NO:3: deduced amino acid sequence encoded by a nucleotide sequence from a fungal contaminant, most likely Fusarium, of a proprietary maize EST library (SILHHCGKHASWDHAKSECVCHDSGKVYTKKHHKCKCPKGEKWHHIEKKCKK; Deduced amino acid sequence encoded by SEQ ID NO4 from a fungal contaminant of Zea mays) |  |  |  | has antifungal activity |
| B1 | showed antifungal activity to varying extents | showed antifungal activity to varying extents | showed antifungal activity to varying extents | showed antifungal activity to varying extents |
